Measurements: patent US20250361240A1, “PYRANOPYRIDINE COMPOUND, PROCESS FOR PREPARING THE SAME, PHARMACEUTICAL COMPOSITION AND USE THEREOF” (Zhejiang Yangli Pharmaceutical Technology Co., Ltd., priority 2024, published 2025)

Key:
human CYP11B2 = human CYP11B2 (Homo sapiens (Human), UniProt P19099); test: Inhibitory activity against hCYP11B2 in G-402 CYP11B2 high expression stable transformants (aldosterone HTRF); type: cell-based
Protocol: (§1) 1. Experimental System: G-402 CYP11B2 or CYP11B1 High Expression Stable Transformants
(§2) The above-mentioned high-expression stable transformants were constructed based on human […] cell line G-402. The artificial lentiviruses were introduced into human CYP11B2 (NM_000498.3) and CYP11B1 (NM_000497.4), respectively.
(§3) Maintenance medium: McCoy's 5A (modified, #16600082, GIBCO)+10% FBS (GIBCO)+1 μg/mL puromycin (A1113803, GIBCO).
(§4) Resuscitation and seeding medium: McCoy's 5A (modified, #16600082, GIBCO)+10% FBS (GIBCO).
(§5) Reaction medium: DMEM/F12 (#11320033, GIBCO)+2.5% activated charcoal filtered FBS (S11695, R & D).
(§6) Seeding: Cells were cultured to a suitable state after resuscitation with maintenance medium, and 96-well flat plates were seeded with seeding medium according to 1×10^4/100 μL/well (unified cell volume).
(§7) Changing solution: The supernatant was aspirated and discarded after seeding overnight (>12 hours) and adherence. 100-150 μL/well serum-free medium was added, and after being aspirated. After aspiration, 50 μL/well reaction medium was added for later use.
(§8) Formulation: Compound was diluted with reaction medium containing 0.4 μM substrate (final experimental concentration is 0.2 μM):
CYP11B2 substrate: 11-deoxycorticosterone (11-deoxycorticosterone, S4243, selleckchem). The final reaction concentration was 0.2 μM
(§9) Loading: The above compound dilutions were added to the cell plates at 50 μL/well. The background and control wells were set.
(§10) Treating and sampling: The cell plates were incubated in a cell incubator for 16 hours after loading, and then each cell plate was centrifuged at 450 g for 2 min. 75 μL supernatant was transferred to a collection plate and frozen at −80° C. for future use (or direct detection).
(§11) Detection: Homogeneous time-resolved fluorescence kit (Cisbio HTRF kit, Cat.64ALDPEG, Cat.62CRTPEG) was used to determine the concentration of aldosterone or cortisol in the supernatant.
(§12) Analysis: The absolute IC50 (Abs IC50) for each compound was calculated using a four parameter fit.

CYP2D6 = CYP2D6 (Homo sapiens (Human), UniProt P10635); test: In vitro inhibitory activity against common CYP450 enzymes: CYP2D6; type: in vitro ADME; conditions: microsomes, substrate Dextromethorphan
CYP2D6, sequence (P10635 whole entry): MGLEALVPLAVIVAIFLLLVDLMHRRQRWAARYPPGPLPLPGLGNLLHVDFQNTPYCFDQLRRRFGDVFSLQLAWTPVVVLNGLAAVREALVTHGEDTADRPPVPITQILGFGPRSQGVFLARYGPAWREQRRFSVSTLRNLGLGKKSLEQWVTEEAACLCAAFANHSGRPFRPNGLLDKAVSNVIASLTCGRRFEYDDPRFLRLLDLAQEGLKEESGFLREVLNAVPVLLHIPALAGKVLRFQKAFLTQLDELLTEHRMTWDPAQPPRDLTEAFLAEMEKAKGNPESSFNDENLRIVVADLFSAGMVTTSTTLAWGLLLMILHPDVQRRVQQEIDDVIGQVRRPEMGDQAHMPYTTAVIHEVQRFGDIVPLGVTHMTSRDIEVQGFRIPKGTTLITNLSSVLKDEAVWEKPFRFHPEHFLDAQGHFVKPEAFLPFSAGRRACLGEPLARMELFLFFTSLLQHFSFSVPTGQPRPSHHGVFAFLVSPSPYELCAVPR
Protocol: (§13) A working solution of the test compound was prepared in a solvent of dimethyl sulfoxide (DMSO) (starting at a final concentration of 50 μM, 3-fold dilution of 7 concentration points). The corresponding microsomes (CORNING, Cat No.452117) and the corresponding substrate solution were prepared (components were shown in Table 2). The working solution of the test compound and the corresponding microsomes were mixed with the corresponding substrate solution and the HLM working solution. The mixture was preheated in a 37.0° C. water bath for 10 min. NADPH cofactor (BONTAC, Cat No.BT04) was added. The resultant mixture was incubated for 10 min in a 37.0° C. water bath. The reaction was terminated by adding cold stop solution. [table] [table] The sample was centrifuged at 4000 rpm for 20 min to precipitate protein and the supernatant was transferred to HPLC water and shaken for 10 min.

CYP2C9 = CYP2C9 (Homo sapiens (Human), UniProt P11712); test: In vitro inhibitory activity against common CYP450 enzymes: CYP2C9; type: in vitro ADME; conditions: microsomes, substrate Diclofenac
CYP2C9, sequence (P11712 whole entry): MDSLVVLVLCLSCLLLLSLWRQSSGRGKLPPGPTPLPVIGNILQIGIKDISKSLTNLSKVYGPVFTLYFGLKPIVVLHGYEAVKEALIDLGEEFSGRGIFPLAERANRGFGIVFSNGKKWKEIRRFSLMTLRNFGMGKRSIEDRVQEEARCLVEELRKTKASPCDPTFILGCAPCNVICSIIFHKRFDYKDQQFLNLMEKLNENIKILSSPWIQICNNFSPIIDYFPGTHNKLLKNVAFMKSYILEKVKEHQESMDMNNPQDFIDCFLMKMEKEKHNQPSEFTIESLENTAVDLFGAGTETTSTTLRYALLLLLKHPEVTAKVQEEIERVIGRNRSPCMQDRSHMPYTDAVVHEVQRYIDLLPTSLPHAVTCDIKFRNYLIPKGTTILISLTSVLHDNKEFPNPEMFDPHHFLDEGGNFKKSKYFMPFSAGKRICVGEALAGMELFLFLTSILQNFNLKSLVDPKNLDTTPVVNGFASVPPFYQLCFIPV
Protocol: as §13

CYP2C19 = CYP2C19 (Homo sapiens (Human), UniProt P33261); test: In vitro inhibitory activity against common CYP450 enzymes: CYP2C19; type: in vitro ADME; conditions: microsomes, substrate (S)-(+)-Mephenytoin
CYP2C19, sequence (P33261 whole entry): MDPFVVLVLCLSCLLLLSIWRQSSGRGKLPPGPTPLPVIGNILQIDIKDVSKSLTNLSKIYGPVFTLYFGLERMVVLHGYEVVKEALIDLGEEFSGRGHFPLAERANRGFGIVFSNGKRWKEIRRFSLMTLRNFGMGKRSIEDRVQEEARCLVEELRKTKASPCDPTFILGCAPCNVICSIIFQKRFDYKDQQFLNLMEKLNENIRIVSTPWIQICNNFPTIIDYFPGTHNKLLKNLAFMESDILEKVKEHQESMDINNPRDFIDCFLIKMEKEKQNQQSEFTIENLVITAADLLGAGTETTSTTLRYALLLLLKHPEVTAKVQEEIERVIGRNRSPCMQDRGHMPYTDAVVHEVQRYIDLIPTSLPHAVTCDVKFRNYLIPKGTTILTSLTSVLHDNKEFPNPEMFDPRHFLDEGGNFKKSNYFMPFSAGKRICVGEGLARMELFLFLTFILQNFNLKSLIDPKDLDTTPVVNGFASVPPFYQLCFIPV
Protocol: as §13

[1] = Pharmacokinetic test in cynomolgus monkeys (LC/MS); type: in vivo, cynomolgus monkeys (Macaca fascicularis); conditions: both sexes, cynomolgus monkey, plasma, 0.5 mg/kg, 0.5mpk oral
Excerpt: (§14) Adult cynomolgus monkeys (Macaca fascicularis) with suitable body weight and age were selected. 1 male and 1 female cynomolgus monkeys were used for experiment. The adaptation period was 1 week. On the day of the experiment, monkeys were individually housed in stainless steel mesh cages for testing.
(§15) Oral treatment and ACTH working solution (working solution diluted to the desired concentration in PBS sterile solution by ultrapure water filtration through a 0.22 μm filter using Tetracosactrin (HY-P0060, MCE)) were administered as follows: • T=0, 2 monkeys in each group were orally administered 0.5 mg/kg (compound was suspended in 5% aqueous sodium hydroxymethylcellulose solution as vehicle) in a fixed volume of 2 mL/kg; • T=+1 hour (i.e., 1 hour after administration), 14.5 μg/kg of the aforementioned ACTH working solution was injected intramuscularly.
(§16) Sampling test: Blood samples (collected in EDTA anticoagulant tubes) were collected before oral administration (Pre-dose) and 0.5 h, 1 h, 2 h, 4 h, 6 h and 12 h after administration for cortisol concentration measurement in plasma. The blood was centrifuged at 10000 rpm for 15 minutes at 4° C., followed by separation of the plasma and uniform storage at −80° C. for further analysis using an Roche biochemical analyzer to detect aldosterone and cortisol in plasma, and a portion of the plasma (0.5 h, 1 h, 2 h, 4 h, 6 h, and 12 h after administration, and an additional blood collection after 24 h) was taken simultaneously to determine the pharmacokinetic parameters by LC/MS.
(§17) The above experiment was repeated except that: T=0, two monkeys in each group were orally administered at a dose of 0.05 mg/kg (compound was suspended in 5% aqueous sodium hydroxymethylcellulose as vehicle) in a fixed volume of 2 mL/kg.

human CYP11B1 = human CYP11B1 (Homo sapiens (Human), UniProt P15538); test: Inhibitory activity against hCYP11B1 in G-402 CYP11B1 high expression stable transformants (cortisol HTRF); type: cell-based; conditions: G-402 CYP11B1 cells, 0.2 μM 11-deoxycortisol, 16 hours; read-out: hCYP11B1 Abs IC50
human CYP11B1, sequence (P15538 25-503): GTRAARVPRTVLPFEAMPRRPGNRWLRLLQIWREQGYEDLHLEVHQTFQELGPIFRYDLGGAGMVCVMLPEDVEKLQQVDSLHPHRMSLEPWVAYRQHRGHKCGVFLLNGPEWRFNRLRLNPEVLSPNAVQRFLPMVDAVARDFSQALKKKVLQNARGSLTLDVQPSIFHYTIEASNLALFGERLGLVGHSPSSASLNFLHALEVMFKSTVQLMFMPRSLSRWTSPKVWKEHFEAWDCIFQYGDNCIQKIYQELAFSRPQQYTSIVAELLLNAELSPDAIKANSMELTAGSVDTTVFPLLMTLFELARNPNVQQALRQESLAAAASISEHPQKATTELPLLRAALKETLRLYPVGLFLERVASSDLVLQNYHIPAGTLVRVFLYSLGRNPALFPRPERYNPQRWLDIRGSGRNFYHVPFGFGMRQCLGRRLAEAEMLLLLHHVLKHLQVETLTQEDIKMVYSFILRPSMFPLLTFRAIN
Protocol: as §1, §2, §3, §4, §5, §6, §7, §8
CYP11B1 substrate: 11-deoxycortisol (11-deoxycortisol, S4775, selleckchem). The final reaction concentration was 0.2 μM.
as §9, §10, §11, §12

cortisol levels = test: Pharmacodynamic test in cynomolgus monkeys with ACTH stimulation: cortisol in plasma; type: in vivo, cynomolgus monkeys (Macaca fascicularis); conditions: 0.5 mg/kg oral
Excerpt: as §14, §15, §16, §17

CYP3A-M = CYP3A-M (Homo sapiens, UniProt P08684); test: In vitro inhibitory activity against common CYP450 enzymes: CYP3A (midazolam); type: in vitro ADME; conditions: microsomes, substrate Midazolam
CYP3A-M, sequence (P08684 2-503 limits assumed): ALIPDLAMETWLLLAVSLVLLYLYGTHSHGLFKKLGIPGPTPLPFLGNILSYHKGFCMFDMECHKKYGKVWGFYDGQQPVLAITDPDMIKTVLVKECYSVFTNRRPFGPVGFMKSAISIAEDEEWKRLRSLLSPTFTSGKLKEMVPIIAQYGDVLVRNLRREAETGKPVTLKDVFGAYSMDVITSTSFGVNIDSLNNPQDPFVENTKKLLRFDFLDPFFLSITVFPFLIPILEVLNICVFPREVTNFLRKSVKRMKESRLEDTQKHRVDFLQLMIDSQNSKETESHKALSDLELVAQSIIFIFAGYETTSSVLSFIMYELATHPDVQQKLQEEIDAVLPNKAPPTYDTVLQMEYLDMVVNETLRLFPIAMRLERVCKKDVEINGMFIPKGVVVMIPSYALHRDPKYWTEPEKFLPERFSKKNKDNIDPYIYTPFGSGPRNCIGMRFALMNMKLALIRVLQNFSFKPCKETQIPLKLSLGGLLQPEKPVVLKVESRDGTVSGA
Protocol: as §13

aldosterone synthesis = test: Pharmacodynamic test in cynomolgus monkeys with ACTH stimulation: aldosterone in plasma; type: in vivo, cynomolgus monkeys (Macaca fascicularis); conditions: 0.5 mg/kg oral
Excerpt: as §14, §15, §16, §17

CYP1A2 = CYP1A2 (Homo sapiens (Human), UniProt P05177); test: In vitro inhibitory activity against common CYP450 enzymes: CYP1A2; type: in vitro ADME; conditions: human, microsomes, 10 min
CYP1A2, sequence (P05177 whole entry): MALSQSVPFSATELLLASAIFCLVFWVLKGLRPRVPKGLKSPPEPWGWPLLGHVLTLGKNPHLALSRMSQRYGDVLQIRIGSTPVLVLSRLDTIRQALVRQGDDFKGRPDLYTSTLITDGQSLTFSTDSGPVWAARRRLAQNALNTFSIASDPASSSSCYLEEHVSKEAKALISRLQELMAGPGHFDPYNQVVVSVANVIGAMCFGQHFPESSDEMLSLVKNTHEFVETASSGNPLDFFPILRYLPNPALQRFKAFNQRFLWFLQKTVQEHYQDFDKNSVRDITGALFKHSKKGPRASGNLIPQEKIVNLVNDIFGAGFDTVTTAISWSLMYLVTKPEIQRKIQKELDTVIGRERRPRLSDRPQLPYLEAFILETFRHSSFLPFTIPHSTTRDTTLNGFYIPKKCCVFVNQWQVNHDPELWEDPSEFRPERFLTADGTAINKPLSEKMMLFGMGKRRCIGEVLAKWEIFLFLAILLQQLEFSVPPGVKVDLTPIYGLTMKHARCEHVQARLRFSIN
Protocol: as §13

human CYP11B2, sequence (P19099 25-503): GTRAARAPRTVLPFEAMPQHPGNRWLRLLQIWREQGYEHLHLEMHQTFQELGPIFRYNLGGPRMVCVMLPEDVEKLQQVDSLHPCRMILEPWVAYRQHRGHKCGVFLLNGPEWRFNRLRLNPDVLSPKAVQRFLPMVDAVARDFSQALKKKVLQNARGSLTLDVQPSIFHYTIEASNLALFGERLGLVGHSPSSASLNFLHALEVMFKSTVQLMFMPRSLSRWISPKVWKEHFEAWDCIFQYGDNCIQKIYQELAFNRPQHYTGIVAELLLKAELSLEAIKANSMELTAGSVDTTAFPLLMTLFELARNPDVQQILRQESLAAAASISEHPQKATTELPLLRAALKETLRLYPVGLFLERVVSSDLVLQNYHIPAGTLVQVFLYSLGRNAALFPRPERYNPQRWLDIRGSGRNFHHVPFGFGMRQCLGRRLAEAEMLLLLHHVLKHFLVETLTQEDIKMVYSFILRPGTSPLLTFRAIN

CCC(=O)N[C@@H]1CCOc2c(-c3ccc4c(c3)CCC(=O)N4C)cncc21 [Example 1, (R)-N-(8-(1-methyl-2-oxo-1,2,3,4-tetrahydroquinolin-6-yl)-3,4-dihydro-2H-pyran[3,2-c]pyridin-4-yl)propanamide]
IC50 (human CYP11B2; G-402 CYP11B2 cells, 0.2 μM 11-deoxycorticosterone, 16 hours, read-out: hCYP11B2 (AS) Abs IC50): 0.0264 µM | hCYP11B ½ Selectivity Fold (human CYP11B2; hCYP11B1 IC50 relative to hCYP11B2 IC50): 159.64 Fold | IC50 (CYP2D6): > 50 µM | IC50 (CYP2C9): > 50 µM | IC50 (CYP2C19): > 50 µM | Cmax [1]: 152 ng/mL | Tmax [1]: 2 h | half-life [1]: 9.09 h | AUC(0-t) ([1]; read-out: AUC0-24 h): 1960 ng·h/mL | IC50 (human CYP11B1): 4.21 µM | Cortisol Concentration in Plasma (cortisol levels; 0.5 h): 1000.0 pg/mL | Cortisol Concentration in Plasma (cortisol levels; 1 h (ACTH at +1 hour)): 876.5 pg/mL | Cortisol Concentration in Plasma (cortisol levels; 2 h): 1180.0 pg/mL | Cortisol Concentration in Plasma (cortisol levels; 4 h): 602.7 pg/mL | Cortisol Concentration in Plasma (cortisol levels; 6 h): 476.3 pg/mL | Cortisol Concentration in Plasma (cortisol levels; 12 h): 377.3 pg/mL | Cortisol Concentration in Plasma (cortisol levels; Pre-dose): 699.3 pg/mL | IC50 (CYP3A-M): > 50 µM | Aldosterone Concentration in Plasma (aldosterone synthesis; 0.5 h): 859.25 pg/mL | Aldosterone Concentration in Plasma (aldosterone synthesis; 1 h (ACTH at +1 hour)): 358.37 pg/mL | Aldosterone Concentration in Plasma (aldosterone synthesis; 2 h): 122.85 pg/mL | Aldosterone Concentration in Plasma (aldosterone synthesis; 4 h): 90.51 pg/mL | Aldosterone Concentration in Plasma (aldosterone synthesis; 6 h): 90.39 pg/mL | Aldosterone Concentration in Plasma (aldosterone synthesis; 12 h): 89.42 pg/mL | Aldosterone Concentration in Plasma (aldosterone synthesis; Pre-dose): 222.84 pg/mL | IC50 (CYP1A2): > 50 µM
